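All cell lines were grown in 96-well plates and treated with compound for 48 hours. GI50 is the concentration that inhibits growth by half.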 Calls of active or inactive are those of the source. Rule as the data show it: active = GI50 up to about 1.1 µM and inactive = higher.
Columns and labels:
Assay in all cases: NCI-60 cell line screen, 48 h
[1] = system: SF-539
[2] = system: SNB-19
[3] = system: OVCAR-5
[4] = system: M14
[5] = system: KM-20L2
[6] = system: NCI-H460
[7] = system: SK-OV-3
[8] = system: RXF 631
[9] = system: HOP-62
[10] = system: UO-31
[11] = system: TK-10
[12] = system: NCI-H23
[13] = system: OVCAR-8
[14] = system: EKVX
[15] = system: KM12
[16] = system: HT-29
[17] = system: K562
[18] = system: DLD-1
[19] = system: 786-0
[20] = system: SK-MEL-28
[21] = system: HOP-92
[22] = system: XF498
[23] = system: MOLT-4
[24] = system: DMS-273
[25] = system: A498
[26] = system: IGROV-1
[27] = system: ACHN
[28] = system: A549
[29] = system: RXF 393
[30] = system: HCC 2998
[31] = system: SNB-75
[32] = system: SNB-78
[33] = system: Malme-3M
[34] = system: RPMI-8226
[35] = system: HL-60
[36] = system: CCRF-CEM
[37] = system: M19-MEL
[38] = system: OVCAR-3
[39] = system: U-251
[40] = system: LOX IMVI
[41] = system: UACC-257
[42] = system: UACC-62
[43] = system: NCI-H522
[44] = system: HCT-116
[45] = system: COLO 205
[46] = system: SK-MEL-2
[47] = system: SW-620
[48] = system: SF-295
[49] = system: SK-MEL-5
[50] = system: SR
[51] = system: OVCAR-4
[52] = system: SN12C
[53] = system: HCT-15
[54] = system: DMS-114
[55] = system: LXFL 529
[56] = system: CAKI-1
[57] = system: SF-268

Measured: GI50

COC(=O)NC12CC3CC(CC(F)(C3)C1)C2
inactive: [1] > 100 µM | [2] > 100 µM | [3] > 100 µM | [4] > 100 µM | [5] > 100 µM | [6] > 100 µM | [7] > 100 µM | [8] > 100 µM | [9] > 100 µM | [10] > 100 µM | [11] > 100 µM | [12] > 100 µM | [13] > 100 µM | [14] > 100 µM | [15] > 100 µM | [16] > 100 µM | [17] > 100 µM | [18] > 100 µM | [19] > 100 µM | [20] > 100 µM | [21] > 100 µM | [22] > 100 µM | [23] > 100 µM | [24] > 100 µM | [25] > 100 µM | [26] > 100 µM | [27] > 100 µM | [28] > 100 µM | [29] > 100 µM | [30] > 100 µM | [31] 19.7 µM | [32] > 100 µM | [33] > 100 µM | [34] > 100 µM | [35] > 100 µM | [36] > 100 µM | [37] > 100 µM | [38] > 100 µM | [39] > 100 µM | [40] > 100 µM | [41] > 100 µM | [42] > 100 µM | [43] > 100 µM | [44] > 100 µM | [45] > 100 µM | [46] > 100 µM | [47] > 100 µM

O=c1c2ccccc2nc(-c2ccccc2Cl)n1NCC1(O)OCC(O)C(O)C1O (centres undefined)
inactive: [48] > 100 µM | [1] > 100 µM | [2] > 100 µM | [3] > 100 µM | [4] > 100 µM | [5] > 100 µM | [6] > 100 µM | [7] > 100 µM | [8] > 100 µM | [49] > 100 µM | [10] > 100 µM | [11] > 100 µM | [50] > 100 µM | [51] > 100 µM | [12] > 100 µM | [52] > 100 µM | [13] > 100 µM | [14] > 100 µM | [15] > 100 µM | [16] > 100 µM | [17] > 100 µM | [19] > 100 µM | [20] > 100 µM | [22] > 100 µM | [23] > 100 µM | [24] > 100 µM | [54] > 100 µM | [25] > 100 µM | [27] > 100 µM | [28] > 100 µM | [29] > 100 µM | [31] 62.2 µM | [32] > 100 µM | [55] > 100 µM | [33] > 100 µM | [34] > 100 µM | [35] > 100 µM | [36] > 100 µM | [56] > 100 µM | [37] > 100 µM | [38] > 100 µM | [39] > 100 µM | [40] > 100 µM | [41] > 100 µM | [42] > 100 µM | [57] > 100 µM | [43] > 100 µM | [44] > 100 µM | [45] > 100 µM | [46] > 100 µM | [47] > 100 µM
> 100 µM: [53]

Source: ChEMBL document CHEMBL1201862, “PubChem BioAssay data set” (2004)
